The NIST ThermoML archive (doi:10.1021/je049940f)
Numbers after ± are expanded uncertainties. Each block holds one compound with its values, some of them ahead of it.

Legend:
[1] = xn = mol fraction of the nth substance listed; details: 10000 kPa, Liquid
[2] = wn = mass fraction of the nth substance listed; details: Liquid

viscosity ([1]; 303.15 K, x1 = 0.0073): 0.81 ± 0.05 mPa·s | viscosity ([1]; 303.15 K, x1 = 0.0148): 0.86 ± 0.05 mPa·s | viscosity ([1]; 303.15 K, x1 = 0.0238): 0.89 ± 0.06 mPa·s | viscosity ([1]; 313.15 K, x1 = 0.0107): 0.68 ± 0.04 mPa·s | viscosity ([1]; 313.15 K, x1 = 0.0207): 0.7 ± 0.06 mPa·s
SMILES: O=C=O [carbon dioxide] + O

viscosity ([2]; 303.15 K, 10000 kPa, w1 = 0.03): 0.84 ± 0.05 mPa·s | viscosity ([2]; 303.15 K, 20000 kPa, w1 = 0.03): 0.83 ± 0.05 mPa·s | viscosity ([2]; 313.15 K, 10000 kPa, w1 = 0.03): 0.68 ± 0.04 mPa·s | viscosity ([2]; 313.15 K, 20000 kPa, w1 = 0.03): 0.69 ± 0.04 mPa·s | viscosity ([2]; 323.15 K, 10000 kPa, w1 = 0.03): 0.59 ± 0.04 mPa·s | viscosity ([2]; 323.15 K, 20000 kPa, w1 = 0.03): 0.59 ± 0.04 mPa·s | viscosity ([2]; 333.15 K, 10000 kPa, w1 = 0.03): 0.49 ± 0.04 mPa·s | viscosity ([2]; 333.15 K, 20000 kPa, w1 = 0.03): 0.5 ± 0.04 mPa·s
SMILES: [Cl-].[Na+] [sodium chloride] + O

viscosity ([2]; 303.15 K, 10000 kPa, w2 = 0): 0.8 ± 0.05 mPa·s | viscosity ([2]; 313.15 K, 10000 kPa, w2 = 0): 0.66 ± 0.04 mPa·s | viscosity ([2]; 323.15 K, 10000 kPa, w2 = 0): 0.56 ± 0.04 mPa·s | viscosity ([2]; 333.15 K, 10000 kPa, w2 = 0): 0.47 ± 0.04 mPa·s
SMILES: O [water] + [Cl-].[Na+]
